From US11841360B1, “Systems, devices, and methods for ex vivo assessment of responses to multiple therapeutic agents” (Oregon Health & Science University, priority 2018, dated 2023)

What was measured:
BT474 tumors = settings: HER2+ luminal-like BT474 tumors, with NRG1b; cited from earlier work
JIMT1 = settings: HER2+ basal-like JIMT1, with HGF; cited from earlier work
MMTV-PyMT tumors = assay: Multiplex nanodose assay (MNA): implantable microdevice in tumor, CC3/MHC-I IHC and multiplex IHC adjacent to the drug-releasing well; type: in vivo, mouse; settings: mIHC, 3 days
Source text: Multiplex nanodose assay (MNA) system and translation to breast cancer patients: The illustrated microdevice (FIG. 6A) is a non-toxic 4×0.8 mm resin cylinder with eighteen 200 μm deep reservoirs, that are packed with active compounds (drugs or drug combinations) in solid form. The device is implanted and stays in the tumor tissue for up to 8 days; after which the tumor/tissue surrounding the device is harvested with the device in place and formalin fixed and paraffin embedded (FFPE). The tumor tissue is analyzed adjacent to each drug well using multiplex IHC (mIHC) with antibodies that interrogate one or more of cleaved caspase activity, epithelial, mesenchymal, endothelial status, as well as immune composition and activity. […] Signal of individual markers are merged and the overlap is quantified.
(FIG. 8A). […] Mean intensity value of the CC3 signal was measured adjacent to the drug releasing reservoir and was normalized to control PEG only loaded reservoir. […] (n=3 regions of interest in one sample for (FIG. 8F) and n=3 drug loaded wells for (FIG. 8D); significance was calculated by a two-tailed t-test with equal variance. Of note, early microdevice studies validated each well to be a biological replicate due to heterogeneous nature of tumors in general (Jonas et al., Sci Transl. Med. 7, 284ra59, 2015). Microfluidic ex vivo platform maintains the viability of the primary mouse tumor tissue. […]

[1] = system: immunocompetent mouse models of triple negative and HER2+ breast cancer with late stage spontaneously developing tumors; assay: MNA small scale screening using 5 FDA approved drugs, CC3 and multiplex IHC; type: in vivo; settings: for infiltration of cytotoxic neutrophils: mIHC close to the drug releasing well
Source text: Panobinostat induces immunogenic cell death associated with Neuropilin-1 neutrophil infiltration: We have developed a novel pre-clinical model system—the Multiplex Nanodose Assay (MNA)—that enables a comprehensive single cell analysis of drug-mediated effects in complex tumor microenvironment (TME). The MNA is based on a recently developed implantable microdevice that performs drug sensitivity testing of multiple drugs at once inside a living tissue (FIGS. 18A and 18B) (Jonas et al., Sci Transl Med 7:284ra57, 2015; Watson et al., Cell Syst 1-14, 2018, doi.org/10.1016/j.cels.2018.02.001). The drugs are passively released into distinct tumor regions and we analyze the drug mediated effects in close proximity to the drug releasing well by multiplex immunohistochemistry (mIHC) (FIG. 18C). This is a sequential IHC staining on a single formalin fixed paraffin embedded (FFPE) tissue for multiparametric characterization of single cells similar to flow cytometry, except that the cells are studies in their natural intact environment (Tsujikawa et al., Cell Rep 19:203-17, 2017; Chang et al., Proc Annu Int Conf IEEE Eng Med Biol Soc EMBS. 4046-9, 2017). The spatial relation of the functionally different populations facilitates identification of the drug-mediated cellular mechanisms. This knowledge can be then translated to rapidly identify rational combination treatment strategies.
With the MNA, we have performed a small scale screening using 5 FDA approved drugs in immunocompetent mouse models of triple negative and HER2+ breast cancer with late stage spontaneously developing tumors. […]
Since panobinostat-mediated effects in vivo are likely linked to effective anti-tumor immunity and increased response to PD-1 blockade therapy, we took a closer look at the immediate interaction between dying tumor cells and tumor microenvironment. […] In the multiplex readout panel, we incorporated stains that interrogate basic drug-sensitivity testing, epithelial, mesenchymal, endothelial compartment, but mainly multiple markers of immune composition and activity. […]

| Structure (SMILES) | proliferation under TKI in presence of neuregulin-1b (NRG1b) (BT474 tumors) | apoptosis under TKI in presence of hepatocyte growth factor (HGF) (JIMT1) | infiltrate of cytotoxic neutrophils at the reservoir (MMTV-PyMT tumors) | share of Neuropilin-1 positive cells that are cytotoxic neutrophils (Myeloperoxidase staining) ([1]; at the panobinostat well) | infiltration of cytotoxic neutrophils [1] | infiltration of cytotoxic neutrophils ([1]; listed as Panobinostat) |
| --- | --- | --- | --- | --- | --- | --- |
| CS(=O)(=O)CCNCc1ccc(-c2ccc3ncnc(Nc4ccc(OCc5cccc(F)c5)c(Cl)c4)c3c2)o1 [Lapatinib] | restores the proliferation | decreasing apoptosis to normal levels | – | – | – | – |
| CCOc1cc2ncc(C#N)c(Nc3ccc(OCc4ccccn4)c(Cl)c3)c2cc1NC(=O)/C=C/CN(C)C [Neratinib] | restores the proliferation | decreasing apoptosis to normal levels | – | – | – | – |
| Cc1[nH]c2ccccc2c1CCNCc1ccc(/C=C/C(=O)NO)cc1 [panobinostat] | – | – | heavy infiltrate of cytotoxic neutrophils | ~85% | increased infiltration of cytotoxic neutrophils | robust increase of neutrophils |
